Results: patent US4442044A, “Process for preparing monoesters and diesters of N-alkyl substituted amino methyl phosphonic acid” (priority 1983, dated 1984)

How the values were obtained:
Assay in all cases: post-emergent herbicidal activity, greenhouse
Assay type in all cases: in vivo
Conditions in all cases: Table I
[1] = tested on: Johnsongrass
Description: (§1) A good grade of top soil is placed in aluminum pans having holes in the bottom and compacted to a depth of 0.95 to 1.27 cm. from the top of the pan. A predetermined number of seeds of each of several dicotyledonous and monocotyledonous annual plant species and/or vegetative propagules for the perennial plant species were placed on the soil and pressed into the soil surface. The seeds and/or vegetative propagules are covered with soil and leveled. The pans are then placed on a sand bench in the greenhouse and watered from below as needed. After the plants reach the desired age (two to three weeks), each pan except for the control pans is removed individually to a spraying chamber and sprayed by means of an atomizer operating at a positive air pressure of approximately 1.46 kg/cm^2 absolute. The atomizer contains 6 ml. of a solution or suspension of the chemical. In that 6 ml., is an amount of a cyclohexanone emulsifying agent mixture to give a spray solution or suspension which contains about 0.4% by weight of the emulsifier. The spray solution or suspension contains a sufficient amount of the candidate chemical in order to give application rates corresponding to those set forth in the tables. The spray solution is prepared by taking an aliquot of a 1.0% by weight stock solution or suspension of the candidate chemical in an organic solvent such as acetone or tetrahydrofuran or in water. The emulsifying agent employed is a mixture comprising 35 weight percent butylamine dodecylbenzene sulfonate and 65 weight percent of a tall oil ethylene oxide condensate having about 11 moles of ethylene oxide per mole of tall oil. The pans are returned to the greenhouse and watered as before and the injury to the plants as compared to the control is observed at approximately two and four weeks as indicated in the tables under WAT and the results recorded. In some instances, the two-week observations are omitted.
(§2) The post-emergent herbicidal activity index used in Tables I and II is as follows: […]

[2] = tested on: Morningglory
Description: as §1, §2

[3] = tested on: Velvetleaf
Description: as §1, §2

[4] = tested on: Barnyardgrass
Description: as §1, §2

[5] = tested on: Downy Brome
Description: as §1, §2

[6] = tested on: Canada Thistle
Description: as §1, §2

[7] = tested on: Yellow Nutsedge
Description: as §1, §2

[8] = tested on: Quackgrass
Description: as §1, §2

[9] = tested on: Lambsquarters
Description: as §1, §2

[10] = tested on: Cocklebur
Description: as §1, §2

[11] = tested on: Smartweed
Description: as §1, §2

CCOC(=O)CNCP(=O)(OC(C)C(=O)OCC)OC(C)C(=O)OCC (stereo not drawn) [Example 16, propanoic acid, 2,2'-[[[[(2-ethoxy-2-oxoethyl)amino]methyl]phosphinylidene]bis(oxy)]-bis-,diethyl ester]
post-emergent herbicidal activity index ([1]; 4 WAT, 5.6 kg/h): 0 (0-24% control)
post-emergent herbicidal activity index ([1]; 4 WAT, 11.2 kg/h): 0 (0-24% control)
post-emergent herbicidal activity index ([2]; 4 WAT, 5.6 kg/h): 1 (25-49% control)
post-emergent herbicidal activity index ([2]; 4 WAT, 11.2 kg/h): 1 (25-49% control)
post-emergent herbicidal activity index ([3]; 4 WAT, 5.6 kg/h): 0 (0-24% control)
post-emergent herbicidal activity index ([3]; 4 WAT, 11.2 kg/h): 0 (0-24% control)
post-emergent herbicidal activity index ([4]; 4 WAT, 5.6 kg/h): 1 (25-49% control)
post-emergent herbicidal activity index ([4]; 4 WAT, 11.2 kg/h): 1 (25-49% control)
post-emergent herbicidal activity index ([5]; 4 WAT, 5.6 kg/h): 0 (0-24% control)
post-emergent herbicidal activity index ([5]; 4 WAT, 11.2 kg/h): 1 (25-49% control)
post-emergent herbicidal activity index ([6]; 4 WAT, 5.6 kg/h): 0 (0-24% control)
post-emergent herbicidal activity index ([6]; 4 WAT, 11.2 kg/h): 0 (0-24% control)
post-emergent herbicidal activity index ([7]; 4 WAT, 5.6 kg/h): 1 (25-49% control)
post-emergent herbicidal activity index ([7]; 4 WAT, 11.2 kg/h): 1 (25-49% control)
post-emergent herbicidal activity index ([8]; 4 WAT, 5.6 kg/h): 0 (0-24% control)
post-emergent herbicidal activity index ([8]; 4 WAT, 11.2 kg/h): 0 (0-24% control)
post-emergent herbicidal activity index ([9]; 4 WAT, 5.6 kg/h): 0 (0-24% control)
post-emergent herbicidal activity index ([9]; 4 WAT, 11.2 kg/h): 0 (0-24% control)
post-emergent herbicidal activity index ([10]; 4 WAT, 5.6 kg/h): 0 (0-24% control)
post-emergent herbicidal activity index ([10]; 4 WAT, 11.2 kg/h): 1 (25-49% control)
post-emergent herbicidal activity index ([11]; 4 WAT, 5.6 kg/h): 0 (0-24% control)
post-emergent herbicidal activity index ([11]; 4 WAT, 11.2 kg/h): 0 (0-24% control)

CCOC(=O)CNCP(=O)(OCCCl)OCCCl [Example 17, glycine, N-[[bis(2-chloroethoxy)phosphinyl]methyl]-, ethyl ester]
post-emergent herbicidal activity index ([1]; 2 WAT, 5.6 kg/h): 0 (0-24% control)
post-emergent herbicidal activity index ([1]; 4 WAT, 11.2 kg/h): 0 (0-24% control)
post-emergent herbicidal activity index ([2]; 2 WAT, 5.6 kg/h): 0 (0-24% control)
post-emergent herbicidal activity index ([2]; 4 WAT, 11.2 kg/h): 1 (25-49% control)
post-emergent herbicidal activity index ([3]; 2 WAT, 5.6 kg/h): 0 (0-24% control)
post-emergent herbicidal activity index ([3]; 4 WAT, 11.2 kg/h): 1 (25-49% control)
post-emergent herbicidal activity index ([4]; 2 WAT, 5.6 kg/h): 0 (0-24% control)
post-emergent herbicidal activity index ([4]; 4 WAT, 11.2 kg/h): 1 (25-49% control)
post-emergent herbicidal activity index ([5]; 2 WAT, 5.6 kg/h): 0 (0-24% control)
post-emergent herbicidal activity index ([5]; 4 WAT, 11.2 kg/h): 0 (0-24% control)
post-emergent herbicidal activity index ([6]; 2 WAT, 5.6 kg/h): 0 (0-24% control)
post-emergent herbicidal activity index ([6]; 4 WAT, 11.2 kg/h): 0 (0-24% control)
post-emergent herbicidal activity index ([7]; 2 WAT, 5.6 kg/h): 0 (0-24% control)
post-emergent herbicidal activity index ([7]; 4 WAT, 11.2 kg/h): 0 (0-24% control)
post-emergent herbicidal activity index ([8]; 2 WAT, 5.6 kg/h): 0 (0-24% control)
post-emergent herbicidal activity index ([8]; 4 WAT, 11.2 kg/h): 0 (0-24% control)
post-emergent herbicidal activity index ([9]; 2 WAT, 5.6 kg/h): 0 (0-24% control)
post-emergent herbicidal activity index ([9]; 4 WAT, 11.2 kg/h): 1 (25-49% control)
post-emergent herbicidal activity index ([10]; 2 WAT, 5.6 kg/h): 0 (0-24% control)
post-emergent herbicidal activity index ([10]; 4 WAT, 11.2 kg/h): 0 (0-24% control)
post-emergent herbicidal activity index ([11]; 2 WAT, 5.6 kg/h): 0 (0-24% control)
post-emergent herbicidal activity index ([11]; 4 WAT, 11.2 kg/h): 1 (25-49% control)

CCOC(=O)CNCP(=O)(OC(C)C(=O)OC)OC(C)C(=O)OC (stereo not drawn) [Example 18]
post-emergent herbicidal activity index ([1]; 4 WAT, 5.6 kg/h): 0 (0-24% control)
post-emergent herbicidal activity index ([1]; 4 WAT, 11.2 kg/h): 1 (25-49% control)
post-emergent herbicidal activity index ([2]; 4 WAT, 5.6 kg/h): 1 (25-49% control)
post-emergent herbicidal activity index ([2]; 4 WAT, 11.2 kg/h): 1 (25-49% control)
post-emergent herbicidal activity index ([3]; 4 WAT, 5.6 kg/h): 0 (0-24% control)
post-emergent herbicidal activity index ([3]; 4 WAT, 11.2 kg/h): 0 (0-24% control)
post-emergent herbicidal activity index ([4]; 4 WAT, 5.6 kg/h): 1 (25-49% control)
post-emergent herbicidal activity index ([4]; 4 WAT, 11.2 kg/h): 2 (50-74% control)
post-emergent herbicidal activity index ([5]; 4 WAT, 5.6 kg/h): 0 (0-24% control)
post-emergent herbicidal activity index ([5]; 4 WAT, 11.2 kg/h): 2 (50-74% control)
post-emergent herbicidal activity index ([6]; 4 WAT, 5.6 kg/h): 0 (0-24% control)
post-emergent herbicidal activity index ([6]; 4 WAT, 11.2 kg/h): 0 (0-24% control)
post-emergent herbicidal activity index ([7]; 4 WAT, 5.6 kg/h): 1 (25-49% control)
post-emergent herbicidal activity index ([7]; 4 WAT, 11.2 kg/h): 2 (50-74% control)
post-emergent herbicidal activity index ([8]; 4 WAT, 5.6 kg/h): 0 (0-24% control)
post-emergent herbicidal activity index ([8]; 4 WAT, 11.2 kg/h): 3 (75-99% control)
post-emergent herbicidal activity index ([9]; 4 WAT, 5.6 kg/h): 0 (0-24% control)
post-emergent herbicidal activity index ([9]; 4 WAT, 11.2 kg/h): 0 (0-24% control)
post-emergent herbicidal activity index ([10]; 4 WAT, 5.6 kg/h): 0 (0-24% control)
post-emergent herbicidal activity index ([10]; 4 WAT, 11.2 kg/h): 0 (0-24% control)
post-emergent herbicidal activity index ([11]; 4 WAT, 5.6 kg/h): 0 (0-24% control)
post-emergent herbicidal activity index ([11]; 4 WAT, 11.2 kg/h): 0 (0-24% control)
